Measurements published in PubChem BioAssay (NCI).
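Each compound was tested at five concentrations against cells in 96-well plates for 48 hours. Abbreviation: GI50, concentration required for 50% inhibition of growth. The concentration for full growth arrest is given as TGI.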

Experiments:
Experiment in all cases: NCI anticancer screen, dose series, 48 h
HCT-116 colon = system: HCT-116 colon
SNB-19 CNS = system: SNB-19 CNS
SN12C renal = system: SN12C renal
SK-OV-3 ovarian = system: SK-OV-3 ovarian
PC-3 prostate = system: PC-3 prostate
A549 NSCLC = system: A549 NSCLC
HCC-2998 colon = system: HCC-2998 colon
CCRF-CEM leukemia = system: CCRF-CEM leukemia
HCT-15 colon = system: HCT-15 colon
RPMI-8226 leukemia = system: RPMI-8226 leukemia
NCI-H460 lung = system: NCI-H460 lung
SF-539 CNS = system: SF-539 CNS
UACC-62 melanoma = system: UACC-62 melanoma
DU-145 prostate = system: DU-145 prostate
HOP-62 NSCLC = system: HOP-62 NSCLC
U251 CNS = system: U251 CNS
COLO 205 colon = system: COLO 205 colon
RXF 393 renal = system: RXF 393 renal
T-47D breast = system: T-47D breast
OVCAR-8 ovarian = system: OVCAR-8 ovarian
NCI-H226 lung = system: NCI-H226 lung
SW-620 colon = system: SW-620 colon
SNB-75 CNS = system: SNB-75 CNS
OVCAR-3 ovarian = system: OVCAR-3 ovarian
NCI-H23 lung = system: NCI-H23 lung
TK-10 renal = system: TK-10 renal
SR leukemia = system: SR leukemia
786-0 renal = system: 786-0 renal
MALME-3M melanoma = system: MALME-3M melanoma
UACC-257 melanoma = system: UACC-257 melanoma
SK-MEL-28 melanoma = system: SK-MEL-28 melanoma
NCI-H522 lung = system: NCI-H522 lung
MOLT-4 leukemia = system: MOLT-4 leukemia
MDA-MB-231 breast = system: MDA-MB-231 breast
SF-295 CNS = system: SF-295 CNS
NCI/ADR-RES ovarian = system: NCI/ADR-RES ovarian
OVCAR-5 ovarian = system: OVCAR-5 ovarian
MCF7 breast = system: MCF7 breast
KM12 colon = system: KM12 colon
HOP-92 NSCLC = system: HOP-92 NSCLC
A498 renal = system: A498 renal
OVCAR-4 ovarian = system: OVCAR-4 ovarian
EKVX NSCLC = system: EKVX NSCLC
SF-268 CNS = system: SF-268 CNS
IGROV1 ovarian = system: IGROV1 ovarian
BT-549 breast = system: BT-549 breast
CAKI-1 renal = system: CAKI-1 renal
ACHN renal = system: ACHN renal
MDA-MB-435 = system: MDA-MB-435
LOX IMVI melanoma = system: LOX IMVI melanoma
HL-60(TB) leukemia = system: HL-60(TB) leukemia
M14 melanoma = system: M14 melanoma
SK-MEL-5 melanoma = system: SK-MEL-5 melanoma
UO-31 renal = system: UO-31 renal
SK-MEL-2 melanoma = system: SK-MEL-2 melanoma
HS 578T breast = system: HS 578T breast
HT29 colon = system: HT29 colon

C[C@]12CC[C@@H]3c4ccc(O)cc4C[C@@H](CCCCCCCCCS(=O)CCCC(F)(F)C(F)(F)F)[C@H]3[C@@H]1CC[C@@H]2O (some centres not stated)
TGI (HCT-116 colon): > 100 µM | GI50 (SNB-19 CNS): > 100 µM | TGI (SNB-19 CNS): > 100 µM | GI50 (SN12C renal): > 100 µM | TGI (SN12C renal): > 100 µM | GI50 (SK-OV-3 ovarian): > 100 µM | TGI (SK-OV-3 ovarian): > 100 µM | GI50 (PC-3 prostate): > 100 µM | TGI (PC-3 prostate): > 100 µM | GI50 (A549 NSCLC): > 69.9 µM | TGI (A549 NSCLC): > 100 µM | GI50 (HCC-2998 colon): > 100 µM | TGI (HCC-2998 colon): > 100 µM | GI50 (CCRF-CEM leukemia): > 100 µM | TGI (CCRF-CEM leukemia): > 100 µM | GI50 (HCT-15 colon): > 100 µM | TGI (HCT-15 colon): > 100 µM | GI50 (RPMI-8226 leukemia): 2.35 µM | TGI (RPMI-8226 leukemia): > 100 µM | GI50 (NCI-H460 lung): > 100 µM | TGI (NCI-H460 lung): > 100 µM | GI50 (SF-539 CNS): > 100 µM | TGI (SF-539 CNS): > 100 µM | GI50 (UACC-62 melanoma): > 100 µM | TGI (UACC-62 melanoma): > 100 µM | GI50 (DU-145 prostate): > 100 µM | TGI (DU-145 prostate): > 100 µM | GI50 (HOP-62 NSCLC): > 67.4 µM | TGI (HOP-62 NSCLC): > 100 µM | GI50 (U251 CNS): > 100 µM | TGI (U251 CNS): > 100 µM | GI50 (COLO 205 colon): > 100 µM | TGI (COLO 205 colon): > 100 µM | GI50 (RXF 393 renal): > 78.1 µM | TGI (RXF 393 renal): > 100 µM | GI50 (T-47D breast): 0.71 µM | TGI (T-47D breast): > 100 µM | GI50 (OVCAR-8 ovarian): > 100 µM | TGI (OVCAR-8 ovarian): > 100 µM | GI50 (NCI-H226 lung): > 100 µM | TGI (NCI-H226 lung): > 100 µM | GI50 (SW-620 colon): > 100 µM | TGI (SW-620 colon): > 100 µM | GI50 (SNB-75 CNS): > 100 µM | TGI (SNB-75 CNS): > 100 µM | GI50 (OVCAR-3 ovarian): > 100 µM | TGI (OVCAR-3 ovarian): > 100 µM | GI50 (NCI-H23 lung): > 100 µM | TGI (NCI-H23 lung): > 100 µM | GI50 (TK-10 renal): > 51.8 µM | TGI (TK-10 renal): > 100 µM | GI50 (SR leukemia): > 100 µM | TGI (SR leukemia): > 100 µM | GI50 (786-0 renal): > 100 µM | TGI (786-0 renal): > 100 µM | GI50 (MALME-3M melanoma): > 100 µM | TGI (MALME-3M melanoma): > 100 µM | GI50 (UACC-257 melanoma): > 100 µM | TGI (UACC-257 melanoma): > 100 µM | GI50 (SK-MEL-28 melanoma): > 100 µM | TGI (SK-MEL-28 melanoma): > 100 µM | GI50 (NCI-H522 lung): > 26.2 µM | TGI (NCI-H522 lung): > 100 µM | GI50 (MOLT-4 leukemia): > 100 µM | TGI (MOLT-4 leukemia): > 100 µM | GI50 (MDA-MB-231 breast): > 100 µM | TGI (MDA-MB-231 breast): > 100 µM | GI50 (SF-295 CNS): > 100 µM | TGI (SF-295 CNS): > 100 µM | GI50 (NCI/ADR-RES ovarian): > 100 µM | TGI (NCI/ADR-RES ovarian): > 100 µM | GI50 (OVCAR-5 ovarian): > 100 µM | TGI (OVCAR-5 ovarian): > 100 µM | TGI (MCF7 breast): > 100 µM | GI50 (KM12 colon): > 100 µM | TGI (KM12 colon): > 100 µM | GI50 (HOP-92 NSCLC): > 100 µM | TGI (HOP-92 NSCLC): > 100 µM | GI50 (A498 renal): > 100 µM | TGI (A498 renal): > 100 µM | GI50 (OVCAR-4 ovarian): > 100 µM | TGI (OVCAR-4 ovarian): > 100 µM | GI50 (EKVX NSCLC): > 100 µM | TGI (EKVX NSCLC): > 100 µM | GI50 (SF-268 CNS): > 100 µM | TGI (SF-268 CNS): > 100 µM | GI50 (IGROV1 ovarian): > 100 µM | TGI (IGROV1 ovarian): > 100 µM | GI50 (BT-549 breast): > 49.9 µM | TGI (BT-549 breast): > 100 µM | GI50 (CAKI-1 renal): > 100 µM | TGI (CAKI-1 renal): > 100 µM | GI50 (ACHN renal): > 100 µM | TGI (ACHN renal): > 100 µM | GI50 (MDA-MB-435): > 100 µM | TGI (MDA-MB-435): > 100 µM | GI50 (LOX IMVI melanoma): > 100 µM | TGI (LOX IMVI melanoma): > 100 µM | GI50 (HL-60(TB) leukemia): 6.53 µM | TGI (HL-60(TB) leukemia): > 100 µM | GI50 (M14 melanoma): > 100 µM | TGI (M14 melanoma): > 100 µM | GI50 (SK-MEL-5 melanoma): > 100 µM | TGI (SK-MEL-5 melanoma): > 100 µM | GI50 (UO-31 renal): > 100 µM | TGI (UO-31 renal): > 100 µM | GI50 (SK-MEL-2 melanoma): > 100 µM | TGI (SK-MEL-2 melanoma): > 100 µM | GI50 (HS 578T breast): > 100 µM | TGI (HS 578T breast): > 100 µM | GI50 (HT29 colon): > 100 µM | TGI (HT29 colon): > 100 µM
